pIC50: −log10 of the molar value.

The target in the experiment is Cytochrome P450 2D6 (Homo sapiens, UniProt P10635). The experiment can be described thus: Inhibitory activity against recombinant human Cytochrome P450 2D6 (CYP2D6) after incubated for 45 minutes.
Cytochrome P450 2D6, sequence (P10635 whole entry): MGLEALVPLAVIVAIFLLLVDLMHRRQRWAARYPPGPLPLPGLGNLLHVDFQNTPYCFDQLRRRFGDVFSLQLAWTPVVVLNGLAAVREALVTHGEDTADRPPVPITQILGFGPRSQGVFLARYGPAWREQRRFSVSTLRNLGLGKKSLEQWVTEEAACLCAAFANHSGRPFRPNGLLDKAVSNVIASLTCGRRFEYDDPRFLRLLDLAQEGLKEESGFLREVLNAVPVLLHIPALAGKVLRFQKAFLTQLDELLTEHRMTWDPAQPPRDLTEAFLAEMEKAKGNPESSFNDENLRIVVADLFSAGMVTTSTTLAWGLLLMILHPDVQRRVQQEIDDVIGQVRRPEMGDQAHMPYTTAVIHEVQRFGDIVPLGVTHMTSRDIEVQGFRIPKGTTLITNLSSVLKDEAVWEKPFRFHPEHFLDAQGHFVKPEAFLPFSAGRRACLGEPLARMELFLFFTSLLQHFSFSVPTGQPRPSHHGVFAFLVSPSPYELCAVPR
The pIC50 is −log10 of the IC50, conventionally taken in molar units. Consider `CC(C)(Cc1c[nH]c2ccccc12)NCC(O)COc1c(C#N)ccc2ccccc12` (stereo unspecified), for which the pIC50 is 7.30.

Regarding `CC(C)N[C@@H](C)C(O)COc1cccc2ccccc12` (stereo partly specified), the negative-log IC50 (pIC50) was 5.42.

With `COCCc1ccc(OCC(O)CNC(C)(C)CSc2ccccc2C)cc1` (stereo unspecified), the pIC50 is 6.55.

Regarding `CC(C)NC[C@@H](O)COc1ccc(-c2ccccc2)c2ccccc12`, the pIC50 was 4.68.

For the molecule `COc1ccc2c(CC(C)(C)NCC(O)COc3ccccc3C#N)c[nH]c2c1` (stereo unspecified), the pIC50 is 6.38.

Consider `C=CCOc1ccc(OCC(O)CNC(C)C)cc1` (stereo unspecified), for which the pIC50 was 4.68.

Turning to `CC(C)(C)NCC(O)COc1ccccc1` (stereo unspecified), the pIC50 is 4.55.

Regarding `CCc1ccccc1OCC(O)CNC(C)(C)Cc1cc2ccccc2[nH]1` (stereo unspecified), the pIC50 was 6.92.

Take `CCc1cccc2cc(CC(O)CNC(C)(C)C)oc12` (stereo unspecified): the pIC50 is 5.32.

In the case of `COc1ccc2[nH]cc(CC(C)(C)NCC(O)COc3ccccc3C#N)c2c1` (stereo unspecified), the negative logarithm of the IC50 (pIC50) was 7.30.

Consider `COc1ccc2c(OCC(O)CNC(C)C)cccc2c1` (stereo unspecified), for which the pIC50 is 5.08.

On to `Cc1ccccc1OCC(O)CNC(C)(C)Cc1cc2ccccc2n1C` (stereo unspecified), for which the pIC50 was 7.05.

For `CC(C)(Cc1csc2ccccc12)NCC(O)COc1ccccc1C#N` (stereo unspecified), the pIC50 was 7.30.

Take `CC(C)(Cc1c[nH]c2ccc(O)cc12)NCC(O)COc1ccccc1C#N` (stereo unspecified): the pIC50 was 7.10.

With `CC(C)NCC(O)COc1ccccc1` (stereo unspecified), the pIC50 is 4.74.

Consider `CC(C)NCC(O)COc1ccc(CCOCC2CC2)cc1` (stereo unspecified) [BETAXOLOL], for which the pIC50 is 4.18.

The values are drawn from ChEMBL document CHEMBL1139585, “A 3D-QSAR model for CYP2D6 inhibition in the aryloxypropanolamine series” (Bioorg Med Chem Lett, 2005).
